Test results: article PMC1838960, “Inhibition of Hippocampal Matrix Metalloproteinase-3 and -9 Disrupts Spatial Memory” (Neural Plasticity, 2006)

Assays:
[1] = Morris water maze task, acquisition training; format: in vivo, male Sprague-Dawley rats; conditions: for positive thigmotaxis (ratio of time near the wall to total trial time), day 8 / day 8 latency to find the platform / day 8 distance swum to find the platform: 70 μg/day cumulative; for day 8 latency to find the platform / day 8 distance swum to find the platform: mean ± SEM; for day 8 latency to find the platform: n = 8; for overall swim speed during the 8 days of training: no difference; for distance to find the platform, representative rat / latency to find the platform, representative rat: single rat, day 8 trial
Source text: (§1) The protocols utilized in this investigation minimized pain and discomfort, were approved by the Washington State University Institutional Animal Care and Use Committee, and conformed to the guidelines for the care and use of laboratory animals as required by the National Institutes of Health Guide for the Care and Use of Laboratory Animals (NIH Publication No. 80-23). Male Sprague-Dawley rats (300–350 g, breeding stock derived from Taconic, Germantown, NY) were adapted to a 12-hour light/dark cycle initiated at 0600 hour in the American Association for the Accreditation of Laboratory Animal Care approved vivarium at a temperature of 21 ± 1°C. The animals were housed in pairs and provided with water and food (Harlan Teklad F6 Rodent Diet, Madison, WI) ad libitum except the night prior to surgery when food was withheld. Each animal was prepared with bilateral guide cannulas targeting either the dorsal hippocampi (flat skull coordinates relative to bregma: post: −4.0 mm, lat: ±2.5 mm from midline) or lateral ventricles (post: 1.0 mm, lat: ±1.5 mm from midline) under ketamine-xylazine anesthesia (100 and 2 mg/kg, resp., intramuscularly). The guide was constructed from PE-60 tubing (Clay Adams, Parsippany, NJ) with a heat bulge that rested on top of the cranium thus serving as a stop to further penetration. The total length of the guide was 2.5 cm with a distance from the beveled tip to the heat bulge of 2.0 and 2.5 mm for the dorsal hippocampus and icv, respectively. All infusions were made using a 30-gauge stainless-steel tubing injector with a beveled end that protruded 2.0 mm beyond the tip of the PE guide cannula. The injector was attached to a 10 μL Hamilton syringe by PE-20 tubing. The animals were hand gentled for 5 minutes per day during the 7 days of recovery from surgery. Those animals prepared with dorsal hippocampus guide cannulas were randomly assigned to one of two groups (8 rats each) that received either FN-439 or artificial cerebrospinal fluid vehicle (aCSF; in mM: 124 NaCl, 3 KCl, 1.24 KH2PO2, 1.3 MgSO4, 2.0 CaCl2, 26 NaHCO3, and 10 D-glucose). Those animals prepared with icv cannulas were similarly assigned.
Our laboratory previously used a 7.2 mM stock in aCSF icv infused over 5 minutes to a total volume of 10 μL (35 μg) 10 minutes prior to behavioral testing, and again 3 hours post-testing (cumulative dose = 70 μg). Presently, we utilized a 14.4 mM stock in aCSF infused over 1 minute to a total volume of 5 μL, that is, 2.5 μL for each side (17.5 μg in 2.5 μL aCSF/min) 20 minutes prior to behavioral testing (5 trials), and again 10 minutes after testing (cumulative dose = 70 μg) each day. The protocol used for icv infusion was 35 μg in 5 μL aCSF infused over 1 minute, 20 minutes prior to testing and again 10 minutes following testing (cumulative dose = 70 μg). Behavioral testing in the Morris water maze task was conducted by an experimenter blind to the treatment of each animal.
The Morris water maze task was used to test spatial memory acquisition. This protocol has been described in detail. Briefly, each trial entailed placing the animal into the water facing the wall of the pool (1.6 m in diameter painted black, filled to a depth of 30 cm) at one of four locations (North (N), South (S), East (E), and West (W)) and tracking its swimming path and duration (Chromatrac; San Diego Instruments, San Diego, Calif) until the submerged platform was found (12 cm in diameter painted black, 2 cm below the surface). Swim speed was determined from these values. If the animal located the platform within 120 seconds it was permitted 30 seconds on the platform before the next trial commenced. […] The animal's entry point was randomized on each trial, and the location of the platform was randomly assigned to one of the four quadrants and remained fixed for each animal throughout training (5 trials/day for 8 days). At the conclusion of the 5 acquisition trials on day 8 each animal was administered one probe trial. […]

[2] = system: LTP in the sprouting crossed temporodentate pathway; conditions: icv 350 μg, following unilateral lesions of the entorhinal cortex; ref Reeves et al. [19]; cited from earlier work
[3] = system: cell nuclei of hippocampal sections; experiment: Cell nuclei (DAPI) appearance in hippocampal sections, cellular toxicity; set-up: species or system rat; conditions: 14.4 mM; vs PBS
Method: (§2) Naïve rats were euthanized by decapitation, their brains were sectioned (10 μm) using a cryostat and the sections were mounted on slides and stored at −80°C for no longer than a week. These sections were warmed to room temperature for 10 minutes and preincubated for 3 hours in either PBS (pH 7.4 control) or 14.4 mM FN-439 in PBS at 37°C. The control slides were then incubated for an additional hour with DQ-gelatin-FITC (DQ, Molecular Probes, Eugene, Ore) and the treated slides were incubated with DQ containing 14.4 mM FN-439 for 1 additional hour. Following incubation, the slides were washed in PBS, fixed with 4% paraformaldehyde in PBS, and cover slipped using prolong antifade mounting medium containing DAPI (Molecular Probes, Eugene, Ore). The slides were examined using a Zeiss Axioplan 2I microscope using epifluorescent illumination and appropriate filter sets for visualizing DQ (FITC) and DAPI (UV) fluorescence. Images were captured at 100–200X magnification using a Kodak DC290 digital camera and Photoshop software (Adobe Systems Inc, San Jose, Calif).

[4] = target: T1, MMP-3 (stromelysin-1) catalytic domain (Homo sapiens, UniProt P08254); experiment: MMP fluorescence enzyme assay, MMP-3 catalytic domain; format: biochemical
T1 construct: Catalytic domains for MMP-3 and -9 were used; purchased Biomol International LP
T1 sequence (P08254 100-272 limits assumed): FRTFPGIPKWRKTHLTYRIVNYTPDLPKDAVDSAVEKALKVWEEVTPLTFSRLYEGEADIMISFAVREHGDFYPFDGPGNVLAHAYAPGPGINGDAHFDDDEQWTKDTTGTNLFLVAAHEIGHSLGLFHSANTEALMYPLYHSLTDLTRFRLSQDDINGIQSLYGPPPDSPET
Method: (§3) Enzyme assays for MMP activity were conducted in black 96-well plates according to manufacturer instructions (Biomol International LP, Plymouth Meeting, Pa). Catalytic domains for MMP-3 and -9 were used with the fluorogenic peptide substrate: Mca-Pro-Leu-Gly-Leu-Dpa-Ala-Arg-NH2. Solutions were preincubated with FN-439 for 30 minutes at 37°C. Subsequently, the fluorogenic peptide substrate was added and fluorescence was measured at 10-minute intervals for one hour using a Perkin-Elmer plate reader. Slopes were derived from the linear portion of the curves and background slopes were subtracted from all samples. The slopes were normalized as percent of enzyme activity compared with activity in the absence of inhibitor. IC50 values were extrapolated using quadratic and sigmoidal curve fit programs for each sample and were averaged.

[5] = Morris water maze task, probe trial; format: in vivo, male Sprague-Dawley rats; conditions: for time spent in the target quadrant: 70 μg/day cumulative, 120-s probe trial on day 8, mean ± SEM
Source text: as §1, with “Those animals prepared with dorsal hippocampus guide cannulas were randomly assigned to one of two groups (8 rats each) that received either FN-439 or artificial cerebrospinal fluid vehicle (aCSF; in mM: 124 NaCl, 3 KCl, 1.24 KH2PO2, 1.3 MgSO4, 2.0 CaCl2, 26 NaHCO3, and 10 D-glucose). Those animals prepared with icv cannulas were similarly assigned.” left out
The Morris water maze task was used to test spatial memory acquisition. […] Swim speed was determined from these values. […]

[6] = icv, 7.2 mM stock, 10 μL (35 μg) twice, cumulative 70 μg; ref [27]; cited from earlier work
Source text: (§4) The potential contribution of ECM remodeling to learning and memory has only recently been addressed. Our laboratory has focused on hippocampal mediated spatial memory and measured elevations in hippocampal MMP-3 and MMP-9 during acquisition of the Morris water maze task.

[7] = system: late-phase of long-term potentiation (LTP); conditions: ref [27]; cited from earlier work
Source text: as §4

[8] = target: T2, MMP-9 (gelatinase B) catalytic domain (Homo sapiens, UniProt P14780); experiment: MMP fluorescence enzyme assay, MMP-9 catalytic domain; format: biochemical
T2 construct: Catalytic domains for MMP-3 and -9 were used; purchased Biomol International LP
T2 sequence (P14780 107-457 limits assumed): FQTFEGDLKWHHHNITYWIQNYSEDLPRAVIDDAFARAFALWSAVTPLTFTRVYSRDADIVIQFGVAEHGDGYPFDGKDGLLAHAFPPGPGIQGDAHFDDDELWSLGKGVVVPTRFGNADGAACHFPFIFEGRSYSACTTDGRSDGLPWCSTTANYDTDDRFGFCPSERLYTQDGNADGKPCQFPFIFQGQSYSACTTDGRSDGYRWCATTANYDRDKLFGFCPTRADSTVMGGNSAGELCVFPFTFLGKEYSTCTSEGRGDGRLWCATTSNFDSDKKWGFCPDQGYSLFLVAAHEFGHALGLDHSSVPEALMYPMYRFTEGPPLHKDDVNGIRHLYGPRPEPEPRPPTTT
Method: as §3

[9] = system: MMP-2 and MMP-9 gelatinase activity in the hippocampus; experiment: In situ zymography of hippocampal sections (DQ-gelatin-FITC); set-up: species or system rat; conditions: 14.4 mM, 3 h preincubation at 37°C plus 1 h with DQ-gelatin, vs PBS
Method: as §2

MMP-9 = conditions: 7.2 mM stock in aCSF infused over 30 min, 100 μL (350 μg); vs aCSF control; ref Reeves et al. [19]; cited from earlier work
HSF stromelysin = conditions: ref Odake et al. [37], read-out: IC50 against stromelysin; cited from earlier work
Source text: (§5) There are at least two possible explanations for these differences. First, Odake and colleagues used HSF stromelysin and HG gelatinase as substrates, while we used MMP-3 (stromelyisin-1) and MMP-9 (gelatinase B). Secon ...

HG gelatinase = conditions: ref Odake et al. [37], read-out: IC50 against gelatinase; cited from earlier work
Source text: as §5

[10] = catalytic domain, substrate Mca-Pro-Leu-Gly-Leu-Dpa-Ala-Arg-NH2, 30 min preincubation at 37°C, fluorescence at 10-min intervals for one hour, mean ± SEM

In the case of `CC(C)C[C@@H](NC(=O)[C@@H]1CCCN1C(=O)CNC(=O)c1ccc(N)cc1)C(=O)N[C@H](C)C(=O)NO` [FN-439, 4-Abz-Gly-Pro-D-Leu-D-Ala-OH], the “acquisition of the Morris water maze task (in words)” value ([1]; bilateral into dorsal hippocampi or icv, 8 days, vs aCSF) is reported as “significantly interfered with the acquisition of the task”, the “positive thigmotaxis (ratio of time near the wall to total trial time), day 8” value ([1]; dorsal hippocampus, aCSF hippocampus 0.17 ± 0.06) is reported as 0.37 ± 0.09 and the “day 8 latency to find the platform” value ([1]; dorsal hippocampus, bilateral, aCSF hippocampus 13.4 ± 1.0 s) is reported as 37.9 ± 8.4 s. The “day 8 distance swum to find the platform” value ([1]; dorsal hippocampus, bilateral, aCSF hippocampus 4.2 ± 0.5 m) was 12.1 ± 2.9 m, the “overall swim speed during the 8 days of training” value ([1]; dorsal hippocampus, aCSF hippocampus 0.30 ± 0.02 m/s) was 0.32 ± 0.02 m/s and the “latencies to find the platform on days 5–8 (in words)” value ([1]; hippocampus or icv, vs aCSF, P < .05) was “significantly longer latencies”. The “positive thigmotaxis (ratio of time near the wall to total trial time), day 8” value ([1]; icv, aCSF icv 0.14 ± 0.05) was 0.45 ± 0.11, the “day 8 latency to find the platform” value ([1]; icv, aCSF icv 14.3 ± 1.9 s) was 44.4 ± 10.7 s and the “day 8 distance swum to find the platform” value ([1]; icv, aCSF icv 5.8 ± 0.7 m) was 12.9 ± 2.7 m. For the same molecule, the “overall swim speed during the 8 days of training” value ([1]; icv, aCSF icv 0.31 ± 0.02 m/s) was 0.31 ± 0.02 m/s, the “dorsal hippocampus infusion compared with icv delivery (in words)” value ([1]; interference with acquisition of the Morris water maze task) was “equivalently effective” and the “distance to find the platform, representative rat” value ([1]; dorsal hippocampus, aCSF rat 5.9 m) was 17.9 m. For the same molecule, the “latency to find the platform, representative rat” value ([1]; dorsal hippocampus, aCSF rat 15 s) was 38.3 s, the “distance to find the platform, representative rat” value ([1]; icv, aCSF rat 4.7 m) was 14.8 m and the “latency to find the platform, representative rat” value ([1]; icv, aCSF rat 13.3 s) was 43.9 s. For the same molecule, the “LTP in the sprouting pathway” value [2] was “lack the ability to demonstrate LTP in the sprouting pathway”, the “cellular toxicity (blue fluorescence of cell nuclei)” value [3] was “no cellular toxicity” and the IC50 [4, 10] was 16.2 ± 7.8 µM. The “effect upon the MMP-3 catalytic domain (in words)” value ([4]; in vitro fluorescence assay) was “maximal effect”, the “time spent in the target quadrant” value ([5]; dorsal hippocampus, aCSF hippocampus 40.7 ± 2.2 s) was 34.3 ± 2.7 s and the “number of entries into the target quadrant” value ([5]; hippocampus or icv, probe trial day 8, groups compared incl. aCSF (F3,28 = 0.98, P > .10)) was “no differences”. For the same molecule, the “time spent in the target quadrant” value ([5]; icv, aCSF icv 47.1 ± 4.0 s) was 28.4 ± 0.8 s, the “acquisition of the Morris water maze task” value [6] was “disrupted the acquisition of the Morris water maze task” and the “late-phase of long-term potentiation (LTP)” value [7] was “interfered with the late-phase of long-term potentiation”. The IC50 [8, 10] was 210 ± 37.8 µM, the “specificity for the MMP-9 catalytic domain (in words)” value ([8]; in vitro fluorescence assay) was “good specificity” and the “inhibition of MMP-2 and MMP-9 in the hippocampus” value ([9]; dentate gyrus) was “significantly inhibited”. The “basal activity of MMP-9 (green fluorescence)” value [9] was “significantly reduced”, the “inhibition of MMP-9 activity” value (MMP-9) was 83.6% and the IC50 (HSF stromelysin) was 150 µM. The IC50 (HG gelatinase) was 30 µM.
